According to US20250296959A1, “B7-H3 TARGETING PEPTIDES AND CONSTRUCTS THEREOF” (Mariana Oncology Inc., priority 2024, published 2025):
Starred links: 1 amine or outer side, 2 acyl side, 3 side chain; linkers in the order of their positions; H or OH if unused. Positions of bridges follow the written chain, without caps; N, C: chain ends. Non-standard residues stand in square brackets, D forms with d. Residues, ends and D or L forms follow the SMILES beside them. *: point of attachment. X7 = O=C(O)CN1CCN(CC(=O)O)CCN(CC(=O)NCCOCCOCCOCCOCCOCCOCCOCCOCC(=O)*)CCN(CC(=O)O)CC1; X9 = CC(=O)N[C@@H](CCC(C)C)C(O)N([C@@H](Cc1ccc(O)cc1)C(=O)[*:2])[*:1]; Ala(piperidin-4-yl) = O=C([C@H](CC1CCN([*:3])CC1)N[*:1])[*:2]; DOTA = O=C(O)CN1CCN(CC(=O)O)CCN(CC(=O)*)CCN(CC(=O)O)CC1; NH(CH2CH2O)4CH2CO = O=C(COCCOCCOCCOCCN[*:1])[*:2]; Phe(4-COOH) = N[C@@H](Cc1ccc(C(=O)O)cc1)C(=O)O; Trp(5-F) = N[C@@H](Cc1c[nH]c2ccc(F)cc12)C(=O)O; Trp(7-aza) = N[C@@H](Cc1c[nH]c2ncccc12)C(=O)O; PEG8 = NCCOCCOCCOCCOCCOCCOCCOCCOCCC(=O)O; Phe(4-F) = N[C@@H](Cc1ccc(F)cc1)C(=O)O; γGlu = O=C(O)[C@H](CCC(=O)[*:2])N[*:1]; 1Nal = N[C@@H](Cc1cccc2ccccc12)C(=O)O; Ala(4-THP) = N[C@@H](CC1CCOCC1)C(=O)O; Cha = N[C@@H](CC1CCCCC1)C(=O)O; Tle = CC(C)(C)[C@H](N)C(=O)O; hLeu = CC(C)CC[C@H](N)C(=O)O; Nle = CCCC[C@H](N)C(=O)O

Target: T1, human 4lg B7-H3 (Homo sapiens, UniProt Q5ZPR3)
T1 sequence (Q5ZPR3 29-534): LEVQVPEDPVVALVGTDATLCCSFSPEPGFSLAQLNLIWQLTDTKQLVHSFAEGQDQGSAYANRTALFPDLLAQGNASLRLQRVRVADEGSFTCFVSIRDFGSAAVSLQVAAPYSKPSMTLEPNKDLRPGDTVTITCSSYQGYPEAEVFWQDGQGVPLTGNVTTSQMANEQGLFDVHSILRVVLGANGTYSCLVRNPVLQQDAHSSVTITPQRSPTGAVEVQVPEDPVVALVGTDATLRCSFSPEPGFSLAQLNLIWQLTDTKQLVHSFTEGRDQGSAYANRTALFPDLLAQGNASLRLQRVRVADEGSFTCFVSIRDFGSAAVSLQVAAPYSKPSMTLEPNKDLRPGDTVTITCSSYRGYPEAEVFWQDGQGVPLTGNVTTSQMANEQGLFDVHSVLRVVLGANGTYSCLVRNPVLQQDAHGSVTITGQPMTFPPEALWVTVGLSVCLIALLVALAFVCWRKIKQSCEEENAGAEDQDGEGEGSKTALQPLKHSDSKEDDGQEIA
Assay: Affinity determination by surface plasmon resonance (SPR) to 4Ig B7-H3
Settings: SPR KD—25° C., 4Ig B7-H3; 25° C. flow cell temperature

Row | SMILES | Kd [µM]
1 | CC(=O)N[C@@H](CCC(C)C)C(=O)N[C@@H](Cc1ccc(O)cc1)C(=O)N[C@H]1CSSC[C@@H](C(=O)N[C@@H](Cc2cccc3ccccc23)C(=O)N[C@@H](Cc2ccccc2)C(=O)N2CCC[C@H]2C(=O)N[C@H](CCCCNC(=O)COCCOCCOCCOCCOCCOCCOCCOCCNC(=O)CN2CCN(CC(=O)O)CCN(CC(=O)O)CCN(CC(=O)O)CC2)C(N)=O)NC(=O)[C@H](Cc2ccc(O)cc2)NC(=O)[C@H](C(C)C)NC(=O)[C@H](CC(=O)O)NC(=O)[C@H](CC2CCOCC2)NC(=O)[C@H](CCCCN)NC(=O)CNC(=O)[C@H](C(C)(C)C)NC1=O [compound 280, Ac-hLeu-Y-C-Tbg-G-K-ThpA-D-V-Y-C-1Nal-F-Pro-dLys(PEG8-DOTA)-CONH2] (Ac-[hLeu]YC[Tle]GK[Ala(4-THP)]DVYC[1Nal]FP[dK](X7)-NH2; disulfide 3-11) | < 0.001
2 | CC(=O)N[C@@H](CCC(C)C)C(O)N[C@@H](Cc1ccc(O)cc1)C(=O)N[C@H]1CSSC[C@@H](C(=O)N[C@@H](Cc2cccc3ccccc23)C(=O)N[C@@H](Cc2ccccc2)C(=O)N2CCC[C@H]2C(=O)N[C@H](CCCCNC(=O)COCCOCCOCCOCCOCCOCCOCCOCCNC(=O)CN2CCN(CC(=O)O)CCN(CC(=O)O)CCN(CC(=O)O)CC2)C(N)=O)NC(=O)[C@H](Cc2ccc(O)cc2)NC(=O)[C@H](C(C)C)NC(=O)[C@H](CC(=O)O)NC(=O)[C@H](CC2CCCCC2)NC(=O)[C@H](CC2CCNCC2)NC(=O)CNC(=O)[C@H](C(C)(C)C)NC1=O (stereo partly drawn) [compound 281, Ac-hLeu-Y-C-Tbg-G-PipAla-CHA-D-V-Y-C-1Nal-F-Pro-dLys(PEG8-DOTA)-CONH2] (H-[X9]C[Tle]G[Ala(piperidin-4-yl)][Cha]DVYC[1Nal]FP[dK](X7)-NH2; disulfide 2-10) | 0.001 to 0.01
3 | CC(C)CC[C@H](NC(=O)COCCOCCOCCOCCNC(=O)CN1CCN(CC(=O)O)CCN(CC(=O)O)CCN(CC(=O)O)CC1)C(=O)N[C@@H](Cc1ccc(F)cc1)C(=O)N[C@H]1CSSC[C@@H](C(=O)N[C@@H](Cc2cccc3ccccc23)C(=O)N[C@@H](Cc2ccccc2)C(=O)N2CCC[C@H]2C(N)=O)NC(=O)[C@H](Cc2ccc(O)cc2)NC(=O)[C@H](C(C)C)NC(=O)[C@H](CC(=O)O)NC(=O)[C@H](CC2CCOCC2)NC(=O)[C@H](CC2CCNCC2)NC(=O)CNC(=O)[C@H](C(C)(C)C)NC1=O [compound 283, DOTA-PEG4-hLeu-4FPhe-C-Tbg-G-PipAla-ThpA-D-V-Y-C-1Nal-F-Pro-CONH2] ({DOTA}-[NH(CH2CH2O)4CH2CO][hLeu][Phe(4-F)]C[Tle]G[Ala(piperidin-4-yl)][Ala(4-THP)]DVYC[1Nal]FP-NH2; disulfide 4-12) | 0.01 to 0.1
4 | CC(C)CC[C@H](NC(=O)CC[C@H](NC(=O)CN1CCN(CC(=O)O)CCN(CC(=O)O)CCN(CC(=O)O)CC1)C(=O)O)C(=O)N[C@@H](Cc1c[nH]c2ncccc12)C(=O)N[C@H]1CSSC[C@@H](C(=O)N[C@@H](Cc2cccc3ccccc23)C(=O)N[C@@H](Cc2ccccc2)C(=O)N2CCC[C@H]2C(N)=O)NC(=O)[C@H](Cc2ccc(O)cc2)NC(=O)[C@H](C(C)C)NC(=O)[C@H](CC(=O)O)NC(=O)[C@H](CC2CCOCC2)NC(=O)[C@H](CC2CCNCC2)NC(=O)CNC(=O)[C@H](C(C)(C)C)NC1=O [compound 284, DOTA-gE-hLeu-7AzaW-C-Tbg-G-PipAla-ThpA-D-V-Y-C-1Nal-F-Pro-CONH2] ({DOTA-γGlu}-[hLeu][Trp(7-aza)]C[Tle]G[Ala(piperidin-4-yl)][Ala(4-THP)]DVYC[1Nal]FP-NH2; disulfide 3-11) | 0.01 to 0.1
5 | CC(C)CC[C@H](NC(=O)CCOCCOCCOCCOCCOCCOCCOCCOCCNC(=O)CN1CCN(CC(=O)O)CCN(CC(=O)O)CCN(CC(=O)O)CC1)C(=O)N[C@@H](Cc1ccc(O)cc1)C(=O)N[C@H]1CSSC[C@@H](C(=O)N[C@@H](Cc2c[nH]c3ccc(F)cc23)C(=O)N[C@@H](Cc2ccccc2)C(=O)N2CCC[C@H]2C(N)=O)NC(=O)[C@H](Cc2ccc(O)cc2)NC(=O)[C@H](C(C)C)NC(=O)[C@H](CC(=O)O)NC(=O)[C@H](Cc2ccc(C(=O)O)cc2)NC(=O)[C@H](CC2CCNCC2)NC(=O)CNC(=O)[C@H](C(C)C)NC1=O [compound 285, DOTA-PEG8-hLeu-Y-C-V-G-PipAla-4COOHPhe-D-V-Y-C-5FW-F-Pro-CONH2] ({DOTA-PEG8}-[hLeu]YCVG[Ala(piperidin-4-yl)][Phe(4-COOH)]DVYC[Trp(5-F)]FP-NH2; disulfide 3-11) | 0.001 to 0.01
6 | CCCC[C@@H]1NC(=O)[C@H](C(C)C)NC(=O)[C@H](CC(=O)O)NC(=O)[C@H](Cc2ccc(C(=O)O)cc2)NC(=O)[C@H](CCCCN)NC(=O)CNC(=O)[C@H](C(C)C)NC(=O)[C@@H](NC(=O)[C@H](Cc2ccc(O)cc2)NC(=O)[C@H](CCC(C)C)NC(C)=O)CSSC[C@@H](C(=O)N[C@@H](Cc2c[nH]c3ccc(F)cc23)C(=O)N[C@@H](Cc2ccccc2)C(=O)N2CCC[C@H]2C(=O)N[C@H](CCCCNC(=O)CN2CCN(CC(=O)O)CCN(CC(=O)O)CCN(CC(=O)O)CC2)C(N)=O)NC1=O [compound 287, Ac-hLeu-Y-C-V-G-K-4COOHPhe-D-V-Nle-C-5FW-F-Pro-dLys(DOTA)-CONH2] (Ac-[hLeu]YCVGK[Phe(4-COOH)]DV[Nle]C[Trp(5-F)]FP[dK](DOTA)-NH2; disulfide 3-11) | 0.01 to 0.1
7 | CC(=O)N[C@@H](CCC(C)C)C(=O)N[C@@H](Cc1ccc(O)cc1)C(=O)N[C@H]1CSSC[C@@H](C(=O)N[C@@H](Cc2c[nH]c3ccc(F)cc23)C(=O)N[C@@H](Cc2ccccc2)C(=O)N2CCC[C@H]2C(N)=O)NC(=O)[C@H](Cc2ccc(O)cc2)NC(=O)[C@H](C(C)C)NC(=O)[C@H](CC(=O)O)NC(=O)[C@H](Cc2ccc(C(=O)O)cc2)NC(=O)[C@H](CCCCNC(=O)CN2CCN(CC(=O)O)CCN(CC(=O)O)CCN(CC(=O)O)CC2)NC(=O)CNC(=O)[C@H](C(C)C)NC1=O [compound 289, Ac-hLeu-Y-C-V-G-Lys(DOTA)-4COOHPhe-D-V-Y-C-5FW-F-Pro-CONH2] (Ac-[hLeu]YCVGK(DOTA)[Phe(4-COOH)]DVYC[Trp(5-F)]FP-NH2; disulfide 3-11) | 0.001 to 0.01
8 | CC(=O)N[C@@H](CCC(C)C)C(=O)N[C@@H](Cc1ccc(O)cc1)C(=O)N[C@H]1CSSC[C@@H](C(=O)N[C@@H](Cc2c[nH]c3ccc(F)cc23)C(=O)N[C@@H](Cc2ccccc2)C(=O)N2CCC[C@H]2C(=O)O)NC(=O)[C@H](Cc2ccc(O)cc2)NC(=O)[C@H](C(C)C)NC(=O)[C@H](CC(=O)O)NC(=O)[C@H](Cc2ccc(C(=O)O)cc2)NC(=O)[C@H](CCCCNC(=O)CN2CCN(CC(=O)O)CCN(CC(=O)O)CCN(CC(=O)O)CC2)NC(=O)CNC(=O)[C@H](C(C)C)NC1=O [compound 290, Ac-hLeu-Y-C-V-G-Lys(DOTA)-4COOHPhe-D-V-Y-C-5FW-F-Pro-COOH] (Ac-[hLeu]YCVGK(DOTA)[Phe(4-COOH)]DVYC[Trp(5-F)]FP-OH; disulfide 3-11) | 0.1 to 0.3
9 | CC(=O)N[C@@H](CCC(C)C)C(=O)N[C@@H](Cc1ccc(O)cc1)C(=O)N[C@H]1CSSC[C@@H](C(=O)N[C@@H](Cc2c[nH]c3ccc(F)cc23)C(=O)N[C@@H](Cc2ccccc2)C(=O)N2CCC[C@H]2C(=O)N[C@H](CCCCNC(=O)CN2CCN(CC(=O)O)CCN(CC(=O)O)CCN(CC(=O)O)CC2)C(N)=O)NC(=O)[C@H](Cc2ccc(O)cc2)NC(=O)[C@H](C(C)C)NC(=O)[C@H](CC(=O)O)NC(=O)[C@H](Cc2ccc(C(=O)O)cc2)NC(=O)[C@H](CCCCN)NC(=O)CNC(=O)[C@H](C(C)C)NC1=O [compound 291, Ac-hLeu-Y-C-V-G-K-4COOHPhe-D-V-Y-C-5FW-F-Pro-dLys(DOTA)-CONH2] (Ac-[hLeu]YCVGK[Phe(4-COOH)]DVYC[Trp(5-F)]FP[dK](DOTA)-NH2; disulfide 3-11) | < 0.001
